Where “and” joins values, the source holds several entries; their conditions need not be identical. Equal values may be shown once.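 Results reflect a 48-hour exposure of cells in 96-well plates to compound at five concentrations. The concentration for 50% growth inhibition is given as GI50. Definition used: TGI = concentration required for complete inhibition of growth.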
Tests used:
Assay in all cases: NCI-60 cell line screen, 48 h
786-0 renal = test system: 786-0 renal
A498 renal = test system: A498 renal
A549 NSCLC = test system: A549 NSCLC
ACHN renal = test system: ACHN renal
BT-549 breast = test system: BT-549 breast
CAKI-1 renal = test system: CAKI-1 renal
CCRF-CEM leukemia = test system: CCRF-CEM leukemia
COLO 205 colon = test system: COLO 205 colon
DU-145 prostate = test system: DU-145 prostate
EKVX NSCLC = test system: EKVX NSCLC
HCC-2998 colon = test system: HCC-2998 colon
HCT-116 colon = test system: HCT-116 colon
HCT-15 colon = test system: HCT-15 colon
HL-60(TB) leukemia = test system: HL-60(TB) leukemia
HOP-62 NSCLC = test system: HOP-62 NSCLC
HOP-92 NSCLC = test system: HOP-92 NSCLC
HS 578T breast = test system: HS 578T breast
HT29 colon = test system: HT29 colon
IGROV1 ovarian = test system: IGROV1 ovarian
K-562 leukemia = test system: K-562 leukemia
KM12 colon = test system: KM12 colon
LOX IMVI melanoma = test system: LOX IMVI melanoma
M14 melanoma = test system: M14 melanoma
MALME-3M melanoma = test system: MALME-3M melanoma
MCF7 breast = test system: MCF7 breast
MDA-MB-231 breast = test system: MDA-MB-231 breast
MDA-MB-435 = test system: MDA-MB-435
MOLT-4 leukemia = test system: MOLT-4 leukemia
NCI-H226 lung = test system: NCI-H226 lung

CN1CCN(CCOc2cc(OC3CCOCC3)c3c(Nc4c(Cl)ccc5c4OCO5)ncnc3c2)CC1
GI50 (786-0 renal): 4.47 µM and > 10 µM | TGI (786-0 renal): 24.1 µM and > 10 µM | GI50 (A498 renal): 0.529 µM and 1.37 µM | TGI (A498 renal): 4.52 µM and > 10 µM | GI50 (A549 NSCLC): 5.27 µM and 3.26 µM | TGI (A549 NSCLC): 25.9 µM and > 10 µM | GI50 (ACHN renal): 0.348 µM and 0.395 µM | TGI (ACHN renal): 14 µM and > 10 µM | GI50 (BT-549 breast): 15.6 µM and > 10 µM | TGI (BT-549 breast): 30.7 µM and > 10 µM | GI50 (CAKI-1 renal): 0.571 µM and 0.644 µM | TGI (CAKI-1 renal): 10.5 µM and > 10 µM | GI50 (CCRF-CEM leukemia): 21.5 µM and > 10 µM | TGI (CCRF-CEM leukemia): 76.3 µM and > 10 µM | GI50 (COLO 205 colon): 9.81 µM and 7.76 µM | TGI (COLO 205 colon): 24 µM and > 10 µM | GI50 (DU-145 prostate): 3.72 µM and 7.29 µM | TGI (DU-145 prostate): 39.7 µM and > 10 µM | GI50 (EKVX NSCLC): 1.04 µM and 0.732 µM | TGI (EKVX NSCLC): 57.6 µM and > 10 µM | GI50 (HCC-2998 colon): 17.7 µM and > 10 µM | TGI (HCC-2998 colon): 37.7 µM and > 10 µM | GI50 (HCT-116 colon): 8.75 µM and 2.76 µM | TGI (HCT-116 colon): 29.2 µM and > 10 µM | GI50 (HCT-15 colon): 4.18 µM and 3.26 µM | TGI (HCT-15 colon): 26.6 µM and > 10 µM | GI50 (HL-60(TB) leukemia): 18.7 µM and > 10 µM | TGI (HL-60(TB) leukemia): 37.8 µM and > 10 µM | GI50 (HOP-62 NSCLC): 5.48 µM and 8.53 µM | TGI (HOP-62 NSCLC): 26.7 µM and > 10 µM | GI50 (HOP-92 NSCLC): 0.679 µM and 0.139 µM | TGI (HOP-92 NSCLC): 11.4 µM and 5.64 µM | GI50 (HS 578T breast): 0.732 µM and 1.7 µM | TGI (HS 578T breast): 11.2 µM and > 10 µM | GI50 (HT29 colon): 0.634 µM and 1.26 µM | TGI (HT29 colon): 5.47 µM and > 10 µM | GI50 (IGROV1 ovarian): 0.244 µM and 0.204 µM | TGI (IGROV1 ovarian): 2.72 µM and 3.05 µM | GI50 (K-562 leukemia): 0.382 µM and 0.47 µM | TGI (K-562 leukemia): 9.24 µM and > 10 µM | GI50 (KM12 colon): 1.32 µM and 2.23 µM | TGI (KM12 colon): 15.1 µM and > 10 µM | GI50 (LOX IMVI melanoma): 1.45 µM and 0.971 µM | TGI (LOX IMVI melanoma): 16.2 µM and > 10 µM | GI50 (M14 melanoma): 15.4 µM and > 10 µM | TGI (M14 melanoma): 31.3 µM and > 10 µM | GI50 (MALME-3M melanoma): 14.1 µM and > 10 µM | TGI (MALME-3M melanoma): 30.1 µM and > 10 µM | GI50 (MCF7 breast): 4.72 µM and > 10 µM | TGI (MCF7 breast): 27.4 µM and > 10 µM | GI50 (MDA-MB-231 breast): 6.95 µM and 8.97 µM | TGI (MDA-MB-231 breast): 24.1 µM and > 10 µM | GI50 (MDA-MB-435): 13.5 µM and > 10 µM | TGI (MDA-MB-435): 27.2 µM and > 10 µM | GI50 (MOLT-4 leukemia): 14.6 µM and > 10 µM | TGI (MOLT-4 leukemia): 49.2 µM and > 10 µM | GI50 (NCI-H226 lung): 15.7 µM and > 10 µM | TGI (NCI-H226 lung): 38.9 µM and > 10 µM

Reference: PubChem BioAssay (NCI)
